Laboratory results taken from ChEMBL document CHEMBL1201862, “PubChem BioAssay data set” (2004).
Values joined by “and” are separate entries in the source; they are usually repeats but may differ in a detail not shown here. Identical values can stand only once.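 How tested: cells in 96-well plates exposed to compound for 48 hours at five concentrations. GI50 = concentration required for 50% inhibition of growth.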 Active and inactive are the calls of the source. Rule as the data show it: active = GI50 up to about 1.1 µM and inactive = higher.

Columns and labels:
Test in all cases: growth of human tumour cells (NCI), 48 h
SNB-75 = tested on: SNB-75
NCI/ADR-RES = tested on: NCI/ADR-RES
OVCAR-8 = tested on: OVCAR-8
MDA-MB-231 = tested on: MDA-MB-231
T47D = tested on: T47D
HCT-15 = tested on: HCT-15
EKVX = tested on: EKVX
SF-539 = tested on: SF-539
SNB-19 = tested on: SNB-19
NCI-H23 = tested on: NCI-H23
OVCAR-3 = tested on: OVCAR-3
SK-MEL-28 = tested on: SK-MEL-28
MDA-MB-435 = tested on: MDA-MB-435
NCI-H522 = tested on: NCI-H522
BT-549 = tested on: BT-549
HOP-92 = tested on: HOP-92
U-251 = tested on: U-251

Row | SMILES | GI50 (SNB-75) | GI50 (NCI/ADR-RES) | GI50 (OVCAR-8) | GI50 (MDA-MB-231) | GI50 (T47D) | GI50 (HCT-15) | GI50 (EKVX) | GI50 (SF-539) | GI50 (SNB-19) | GI50 (NCI-H23) | GI50 (OVCAR-3) | GI50 (SK-MEL-28) | GI50 (MDA-MB-435) | GI50 (NCI-H522) | GI50 (BT-549) | GI50 (HOP-92) | GI50 (U-251)
1 | COC(=O)c1c(C(=O)OC)c2ccccn2c1-c1cc(C)cc2c1C(=O)C=CC2=O | 16.4 µM (inactive) | 15.6 µM (inactive) | 6.3 µM (inactive) | 10.4 µM (inactive) | 4.21 µM (inactive) | 10.6 µM | 14.8 µM (inactive) | 11 µM (inactive) | 13.7 µM (inactive) | 8.09 µM (inactive) | 11 µM (inactive) | 12.9 µM (inactive) | 11.4 µM (inactive) | > 10 µM (inactive) |  |  | 
2 | O=P1(c2ccccc2)c2ccccc2CCc2ccccc21 | 43.8 µM (inactive) |  | > 100 µM (inactive) | 80.7 µM (inactive) |  | 68.9 µM | 66.4 µM (inactive) | > 100 µM (inactive) | > 100 µM (inactive) | > 100 µM (inactive) | 40.8 µM (inactive) | > 100 µM (inactive) | 57.7 µM (inactive) | 37.1 µM (inactive) | 99.5 µM (inactive) | 35.6 µM (inactive) | 
3 | CCOc1cccc(/C=N/N=C2\C(=O)Nc3c(Cl)cc(Cl)cc32)c1O | 40.9 µM (inactive) | 33.3 µM (inactive) | 60.5 µM (inactive) | 37.2 µM (inactive) |  | 54.6 µM | 5.97 µM (inactive) | 53.6 µM (inactive) | > 100 µM (inactive) | 50.1 µM (inactive) | 36.9 µM (inactive) | 71.8 µM (inactive) | 44.8 µM (inactive) |  | 39.6 µM (inactive) | 75.7 µM (inactive) | 46.5 µM (inactive)
4 | N#Cc1c(N)nc2c(/N=N\c3ccccc3)c(N)nn2c1Nc1ccccc1 | 34.3 µM (inactive) | 20.4 µM (inactive) | 3.72 µM (inactive) | 16 µM (inactive) |  | 23.6 µM | 5.37 µM (inactive) | 21.6 µM (inactive) | 18.5 µM (inactive) | 4.55 µM (inactive) | 13.9 µM (inactive) | 5.51 µM (inactive) | 16.4 µM (inactive) | 17.8 µM (inactive) | 23.9 µM (inactive) | 14.6 µM (inactive) | 10.2 µM (inactive)
5 | CCc1ccc2oc(-c3cc(O)c(-c4nc5cc(CC)ccc5o4)cc3O)nc2c1 | 86.5 µM (inactive) | > 100 µM (inactive) | > 100 µM (inactive) | > 100 µM (inactive) | > 100 µM (inactive) | > 100 µM | > 100 µM (inactive) | > 100 µM (inactive) | > 100 µM (inactive) | > 100 µM (inactive) |  | > 100 µM (inactive) | > 100 µM (inactive) |  |  | > 100 µM (inactive) | > 100 µM (inactive)
6 | COc1ccccc1/C=C(/C)[N+](=O)[O-] |  | 3.44 µM (inactive) and 2.65 µM (inactive) | 1.79 µM (inactive) and 2.12 µM (inactive) | 3.43 µM (inactive) and 4.86 µM (inactive) | 1.44 µM (inactive) and 1.04 µM (active) | 1.96 µM and 2.01 µM | 3.21 µM (inactive) and 4.49 µM (inactive) | 1.77 µM (inactive) and 2.28 µM (inactive) | 4.26 µM (inactive) and 2.33 µM (inactive) | 2.15 µM (inactive) and 2.2 µM (inactive) | 1.32 µM (inactive) and 1.09 µM (active) | 2.46 µM (inactive) and 2.19 µM (inactive) | 3.15 µM (inactive) and 1.93 µM (inactive) | 1.39 µM (inactive) and 1.19 µM (inactive) |  | 2.21 µM (inactive) | 1.68 µM (inactive) and 1.79 µM (inactive)
7 | ClCCN1CCO/C1=N/c1ccc2c(c1)CCCC2 | 13.3 µM (inactive) | 18.1 µM (inactive) | 5.13 µM (inactive) | 13.4 µM (inactive) | 8.51 µM (inactive) | 20 µM | 14 µM (inactive) | 4.81 µM (inactive) | 5.53 µM (inactive) | 8.95 µM (inactive) | 13 µM (inactive) | 14.1 µM (inactive) | 10.5 µM (inactive) | 10.8 µM (inactive) |  | 11.2 µM (inactive) | 4.65 µM (inactive)
8 | CC(C)(C)C1=C(Br)C(F)(C(C)(C)C)OP1(=O)c1ccccc1 (centres undefined) | 17 µM (inactive) | 16.4 µM (inactive) | 21.6 µM (inactive) |  | 15.9 µM (inactive) | 19.5 µM | 19.3 µM (inactive) | 19.1 µM (inactive) | 16.4 µM (inactive) | 19.5 µM (inactive) | 15.5 µM (inactive) | 19.2 µM (inactive) | 16.1 µM (inactive) | 15.7 µM (inactive) |  | 18.7 µM (inactive) | 17.5 µM (inactive)
9 | COC(=O)c1cc2c(c3c1CC(Cc1ccccc1)C3=O)CCC2 (centres undefined) | 40.9 µM (inactive) | > 100 µM (inactive) | 95.3 µM (inactive) | 62.2 µM (inactive) | 25.5 µM (inactive) | 35 µM | > 100 µM (inactive) | > 100 µM (inactive) | > 100 µM (inactive) | 64.4 µM (inactive) | > 100 µM (inactive) | > 100 µM (inactive) | 52.6 µM (inactive) | 68.4 µM (inactive) |  | 25.1 µM (inactive) | 62.8 µM (inactive)
10 | CS(=O)(=O)c1nc(-c2cc3c(c(S(C)(=O)=O)n2)CCC3)cc2c1CCCC2 | 8.63 µM (inactive) | 48.6 µM (inactive) | 19.1 µM (inactive) | 38.9 µM (inactive) |  | > 100 µM | > 100 µM (inactive) | 49.3 µM (inactive) | 32.4 µM (inactive) | 58.3 µM (inactive) | > 100 µM (inactive) | > 100 µM (inactive) | > 100 µM (inactive) | 17 µM (inactive) | 32.1 µM (inactive) |  | 27.1 µM (inactive)
11 | O=c1c2sc(=S)n(-c3ccc(F)cc3)c2ncn1/N=C/c1ccc(F)cc1F | 16 µM (inactive) | 33 µM (inactive) | 20.1 µM (inactive) | 21.1 µM (inactive) |  | 88.9 µM | 16.6 µM (inactive) |  | 26.6 µM (inactive) | 33.4 µM (inactive) | 30.1 µM (inactive) | 29.8 µM (inactive) | 83.9 µM (inactive) | 44.5 µM (inactive) | 15.4 µM (inactive) | 11 µM (inactive) | 23.4 µM (inactive)
12 | CC(C)=CCC[C@@H](C)C1=C(O)C(=O)C(C)=C(c2c(I)c(=O)n(C)c(=O)n2C)C1=O | > 100 µM (inactive) | > 100 µM (inactive) | > 100 µM (inactive) |  | > 100 µM (inactive) | > 100 µM | > 100 µM (inactive) | > 100 µM (inactive) | > 100 µM (inactive) | > 100 µM (inactive) | > 100 µM (inactive) | > 100 µM (inactive) | > 100 µM (inactive) |  | > 100 µM (inactive) | > 100 µM (inactive) | 
13 | COc1cc(C(=O)Oc2c(C#N)sc3c2c(=O)n(-c2ccccc2)c(=S)n3-c2ccccc2)cc(OC)c1OC | 14.4 µM (inactive) | 16.6 µM (inactive) | 10.9 µM (inactive) | 20.8 µM (inactive) | 25.5 µM (inactive) | 18.9 µM | 19.3 µM (inactive) | 4.71 µM (inactive) | 11.6 µM (inactive) | 18.1 µM (inactive) | 22.7 µM (inactive) | 14.2 µM (inactive) | 15.1 µM (inactive) | 0.361 µM (active) |  | 14.6 µM (inactive) | 12.5 µM (inactive)
14 | CN1C(=O)c2ccccc2NC(=O)C12O[C@@H]2c1cccc(O)c1 (some centres undefined) | > 100 µM (inactive) | > 100 µM (inactive) | > 100 µM (inactive) | > 100 µM (inactive) | > 100 µM (inactive) | > 100 µM | > 100 µM (inactive) | > 100 µM (inactive) | > 100 µM (inactive) | > 100 µM (inactive) | > 100 µM (inactive) | > 100 µM (inactive) | > 100 µM (inactive) | > 100 µM (inactive) |  | > 100 µM (inactive) | > 100 µM (inactive)
15 | CS(=O)(=O)O[C@H]1[C@H](O)c2ccccc2[C@@H]1N=[N+]=[N-] | 21.4 µM (inactive) | > 100 µM (inactive) | > 100 µM (inactive) | > 100 µM (inactive) |  | > 100 µM | > 100 µM (inactive) | > 100 µM (inactive) | > 100 µM (inactive) | > 100 µM (inactive) | > 100 µM (inactive) | > 100 µM (inactive) | > 100 µM (inactive) | > 100 µM (inactive) | > 100 µM (inactive) | > 100 µM (inactive) | > 100 µM (inactive)
16 | Cc1cccc2c1CC1(C2)Cc2c(C)cccc2C1=O (centres undefined) | 18.6 µM (inactive) | 38.1 µM (inactive) | 42.9 µM (inactive) | 23.6 µM (inactive) | 44.8 µM (inactive) | 29 µM | 16 µM (inactive) | 25.9 µM (inactive) | 49.3 µM (inactive) | 31.4 µM (inactive) | 23.9 µM (inactive) | 21.6 µM (inactive) | 24.8 µM (inactive) | 17.8 µM (inactive) |  | 16.6 µM (inactive) | 23.8 µM (inactive)
17 | CC(=O)O[C@H]1C(=O)[C@@]2(C)C(C(OC(=O)c3ccccc3)[C@]3(O)CC(OC(=O)C(O)C(NC(=O)c4cccc(Cl)c4)c4ccccc4)C(C)=C1C3(C)C)[C@]1(OC(C)=O)CO[C@@H]1C[C@@H]2O (some centres undefined) | 1.1 µM (active) | 5.28 µM (inactive) | 0.653 µM (active) | 1.73 µM (inactive) |  | 2.62 µM | > 10 µM (inactive) | 0.353 µM (active) | 2.79 µM (inactive) | 1.39 µM (inactive) | 0.449 µM (active) |  | 0.118 µM (active) | 0.912 µM (active) | 6.58 µM (inactive) | > 10 µM (inactive) | 1.25 µM (inactive)
18 | COc1cccc(O)c1-c1cc(=O)c2c(O)c(OC)c(OC)c(OC)c2o1 [SKULLCAPFLAVONE II] | 23 µM (inactive) | 21.8 µM (inactive) | 30.3 µM (inactive) | 41 µM (inactive) |  | 18.5 µM | 32.7 µM (inactive) | 36.8 µM (inactive) | 29.2 µM (inactive) | 24.9 µM (inactive) | 22.5 µM (inactive) | 35.8 µM (inactive) | 10.3 µM (inactive) | 22.7 µM (inactive) | 27.2 µM (inactive) | 22.1 µM (inactive) | 31.6 µM (inactive)
